Data reported in US20100184596A1, “METHOD FOR THE CONTROL OF WEEDS IN TURF” (SYNGENTA CROP PROTECTION, INC., priority 2007, published 2010).

Test system: Digitaria ischaemum (smooth crabgrass)
Assay: Weed control via post emergence spray, in bluegrass/fescue mix (Table B5.7)
Type: in vivo
Description: The weed control efficacy of the compound of formula I was tested. The compound was applied via post emergence spray to a range of weeds, at various rates and spray treatment treatment regimes. Percentage weed control assessments were taken at various timepoints.

`COCCOCc1nc(C(F)(F)F)ccc1C(=O)C1=C(O)C2CCC(C2)C1=O` (stereo not shown) [Formula I, 4-Hydroxy-3-[2-(2-methoxyethoxymethyl)-6-trifluoromethylpyridine-3-carbonyl]-bicyclo[3.2.1]oct-3-en-2-one] was tested, and the “% control” value (10 g ai/ha, 7 DAT) was 0.00%, the “% control” value (10 g ai/ha, 14 DAT) was 0.00% and the “% control” value (10 g ai/ha, 22 DAT) was 0.00%. For the same compound, the “% control” value (10 g ai/ha, 29 DAT) was 0.00%, the “% control” value (10 g ai/ha, 46 DAT) was 1.25% and the “% control” value (20 g ai/ha, 7 DAT) was 0.00%. For the same compound, the “% control” value (20 g ai/ha, 14 DAT) was 2.50%, the “% control” value (20 g ai/ha, 22 DAT) was 5.00% and the “% control” value (20 g ai/ha, 29 DAT) was 3.75%. The “% control” value (20 g ai/ha, 46 DAT) was 7.50%, the “% control” value (40 g ai/ha, 7 DAT) was 0.00% and the “% control” value (40 g ai/ha, 14 DAT) was 0.00%. The “% control” value (40 g ai/ha, 22 DAT) was 2.50%, the “% control” value (40 g ai/ha, 29 DAT) was 8.75% and the “% control” value (40 g ai/ha, 46 DAT) was 30.00%. For the same compound, the “% control” value (80 g ai/ha, 7 DAT) was 0.00%, the “% control” value (80 g ai/ha, 14 DAT) was 0.00% and the “% control” value (80 g ai/ha, 22 DAT) was 5.00%. The “% control” value (80 g ai/ha, 29 DAT) was 17.50%, the “% control” value (80 g ai/ha, 46 DAT) was 51.25% and the “% control” value (160 g ai/ha, 7 DAT) was 0.00%. The “% control” value (160 g ai/ha, 14 DAT) was 6.25%, the “% control” value (160 g ai/ha, 22 DAT) was 8.75% and the “% control” value (160 g ai/ha, 29 DAT) was 20.00%. For the same compound, the “% control” value (160 g ai/ha, 46 DAT) was 70.00%.
